Experiments:
[1] = target: hMC4R (Homo sapiens (Human), UniProt P32245); experiment: In vitro binding affinity assay using hMC4R (radioligand competition binding, CHO cell membranes); conditions: competition with [125I]-(Nle4, D-Phe7)-α-MSH 0.5 nM; Ki from IC50 by Cheng-Prusoff; read-out: Ki (nM) geometric mean
Method: The binding affinity of test compounds at the α-melanocyte-stimulating hormone receptor (hMC4R) was assessed using a radioligand competition binding assay. Recombinant Chinese hamster ovaries (CHO) cells stably expressing hMC4R (PerkinElmer #ES-191-C) were used for competitive binding. hMC4R membranes were grown in Dulbecco's Modified Essential Medium and Ham's F-12 Medium (DMEM/F12), 10% heat inactivated fetal bovine serum (FBS), 0.4 mg/mL Geneticin and 2 mM L-glutamine. Cell membranes were bulked and frozen until the assay was performed.
Compounds were solubilized in 100% dimethyl sulfoxide (DMSO) to a concentration of 30 mM. A 10-point intermediate dilution series using half log dilutions was created in 100% DMSO with a top concentration of 0.03 mM. The serially diluted compounds were spotted as 1 μL/well, in 96-well Costar 3363 plates. The final compound range in the assay was 300 nM to 0.01 nM with a final DMSO concentration of 1%. Control wells, containing 1 μL of 2 mM ([…]) alpha-melanocyte stimulating hormone (α-MSH-Tocris #2584) was added to the non-specific binding wells and 1 μL 100% DMSO for the total binding control wells. This was followed by the addition of 80 μL of assay buffer [25 mM HEPES, 5 mM MgCl2, 2.5 mM CaCl2, 150 mM NaCl, Complete EDTA-free Protease Inhibitor Tablet (Thermo Scientific #11873580001) and 0.25% BSA]. […] The exact concentration of radioligand used for each experiment was determined by liquid scintillation counting and adjusted if necessary.
Frozen hMC4R cell membranes were thawed and Dounce homogenized. Homogenates were resuspended in assay buffer to a concentration of 2 μg per well. […] The plates were incubated for 2 hours at room temperature. Assay samples were then rapidly filtered through Unifilter-96 GF/B PEI coated filter plates using a filter plate harvester (PerkinElmer) and rinsed with ice-cold wash buffer [25 mM (4-(2-hydroxyethyl)-1-piperazineethanesulfonic acid (HEPES), 1 mM MgCl2, 2.5 mM CaCl2, and 500 mM NaCl]. Filter plates were dried overnight at room temperature. Plates were then bottom-sealed prior to the addition of 50 μL/well Ultima Gold XR scintillation fluid (PerkinElmer 6013111). Plates were then top-sealed, incubated for 60 minutes at room temperature and then the amount of radioactivity present was determined by liquid scintillation counting on a Microbeta Trilux (PerkinElmer #2450-0060).
The raw data (expressed as counts per minute) were analyzed using ActivityBase (IDBS Data Management Software). […] Equilibrium dissociation constant for inhibitor of ligand and receptor interaction (Ki) values were then calculated from the IC50 values using the Cheng-Prusoff equation: Ki=IC50/(1+([L]/Kd)), where [L] is the concentration of the radioligand used in the experiment and Kd is the affinity of the radioligand (determined in separate saturation experiments).

[2] = target: human Melanocortin-4 receptor (MC4R) (Homo sapiens (Human), UniProt P32245); experiment: Functional in vitro MC4R antagonist potency assay (intracellular cAMP, HTRF, CHO cells); assay type: cell-based; conditions: cAMP after EC80 agonist stimulation (200 nM αMSH); Kb from IC50 by Leff-Dougall equation; read-out: Kb (nM) Antagonist geometric mean
Chain of human Melanocortin-4 receptor (MC4R) (P32245 whole entry): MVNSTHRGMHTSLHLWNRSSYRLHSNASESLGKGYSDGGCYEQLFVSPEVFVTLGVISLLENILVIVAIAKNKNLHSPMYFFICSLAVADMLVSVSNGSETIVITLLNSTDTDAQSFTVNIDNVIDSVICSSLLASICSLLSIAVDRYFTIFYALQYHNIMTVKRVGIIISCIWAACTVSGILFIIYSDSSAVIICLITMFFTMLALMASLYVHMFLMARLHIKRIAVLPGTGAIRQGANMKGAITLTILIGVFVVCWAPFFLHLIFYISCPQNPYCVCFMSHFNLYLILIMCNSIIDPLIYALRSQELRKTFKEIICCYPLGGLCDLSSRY
Method: The functional in vitro antagonist potency for test compounds was determined by monitoring intracellular cyclic adenosine monophosphate (cAMP) levels in Chinese hamster ovary (CHO—) cells stably expressing the human Melanocortin-4 receptor (MC4R). Following agonist activation, human MC4R associates with the G-protein complex causing the Ga subunit to exchange bound GDP for GTP, followed by dissociation of the Gα-GTP complex. The activated Ga subunit can couple to downstream effectors to regulate the levels of second messengers or cAMP within the cell. Thereby, determination of intracellular cAMP levels allows for pharmacological characterization. Intracellular cAMP levels are quantitated using a homogenous assay utilizing the Homogeneous Time-Resolved Fluorescence (HTRF) technology from CisBio. The method is a competitive immunoassay between native cAMP produced by cells and the cAMP labelled with the acceptor dye, d2. The two entities then compete for binding to a monoclonal anti-cAMP antibody labeled with cryptate. The specific signal is inversely proportional to the concentration of cAMP in the cells.
Test compounds were solubilized to 30 mM in 100% dimethyl sulfoxide (DMSO) and stored. An 11-point dilution series using 1 in 3 162-fold serial dilutions was created in 100% DMSO with a top concentration of 800 μM. The serially diluted compound was spotted into a 384-well plate (Greiner, Cat No. 781280) at 40 nL/well with duplicate points at each concentration, and then diluted 1 in 1000 with 40 μL assay buffer containing HBSS, 20 mM HEPES (Invitrogen), 0.1% BSA, and 250 μM IBMX (Sigma Aldrich) to create an intermediate plate at 2× final assay concentration (FAC). The final compound concentration range in the assay was 400 nM to […], with a final DMSO concentration of 0.1%.
In-house generated CHO cells stably expressing the Gs-coupled human MC4R receptor were plated in 384-well assay plates (Corning, Cat No. 3570) in 50 μL/well of Ham's F-12 containing 10% heat inactivated FBS, 1× penicillin/streptomycin, 1 mM Glutamax (Invitrogen) at a density of 2,500 cells per well and incubated at 37° C. (95% O2: 5% CO2) overnight, with micro-clime lids (Labcyte, Cat No. LLS-0310). On day of assay, media was removed from the assay plate through gentle flicking and blotting plate on a paper towel and replaced with 5 μL of 2× antagonist compound in assay buffer (HBSS, 20 mM HEPES, 0.1% BSA, 250 μM IBMX) and 0.1% DMSO. Cells were incubated with compound for 30 minutes at 37° C. (95% O2: 5% CO2) before addition of 5 μL EC80 agonist stimulation (200 nM α-melanocyte stimulating hormone, αMSH, Bachem) and another 30-minute incubation at 37° C. (95% O2: 5% CO2). Intracellular cAMP levels were quantified as per Cisbio's protocol (5 μL of D2 and then 5 μL Cryptate, incubated for 1-2 hours at room temperature). Samples were measured on an Envision plate reader (PerkinElmer Life and Analytical Sciences; excitation, 320 nm; emission, 665 nm/620 nm).
Data were analyzed using the ratio of fluorescence intensity at 620 and 665 nm for each well, extrapolated from the cAMP standard curve to express data as nM cAMP for each well. Data expressed as nM cAMP were then normalized to control wells using Activity Base (IDBS). Zero percent effect (ZPE) was defined as nM of cAMP generated from EC80 agonist stimulation (200 nM αMSH). In the absence of an antagonist control compound, one hundred percent effect (HPE) was defined as nM of cAMP generated from assay buffer/vehicle only.

Chain of hMC4R (P32245 whole entry): as above

Ki [1] [nM]	Kb [2] [nM]	SMILES
0.31	1.9	COc1cc([C@@H](C)C(=O)N2CC[C@H](Nc3ccc(-c4cn(C)c(C(F)F)n4)c(C)n3)C2)cc(OC)n1 (single isomer, unassigned) [Example 12A]
0.49	0.96	COc1cc([C@@H](C)C(=O)N2CC[C@H](Nc3ccc(-c4nc(C(F)F)n(C)n4)c(C)n3)C2)c(Cl)cn1 (single isomer, unassigned) [Example 24B]
0.49	1.8	COc1cc([C@@H](C)C(=O)N2CC[C@H](Nc3ccc(-c4nc(C(F)(F)F)n(C)n4)c(C)n3)C2)c(Cl)cn1 (single isomer, unassigned) [Example 25B]
2.1	5.6	COc1cc([C@@H](C)C(=O)N2CC[C@H](Nc3ccc(-c4nnn(C)n4)c(C)n3)C2)c(C)cn1 (single isomer, unassigned) [Example 26B]
> 200	> 62	COc1cc([C@@H](C)C(=O)N2CC[C@H](Nc3ccc(-c4ncccn4)c(C)n3)C2)cc(OC(F)F)n1 (single isomer, unassigned) [Example 30A]
0.93	6.8	COc1cc([C@@H](C)C(=O)N2CC[C@H](Nc3ccc(-c4ncccn4)c(C)n3)C2)cc(OC(F)F)n1 (single isomer, unassigned) [Example 30B]
1.1	3.3	COc1cc([C@@H](C)C(=O)N2CC[C@H](Nc3ccc(-c4nc(C(F)F)n(C)n4)c(C)n3)C2)ccn1 (single isomer, unassigned) [Example 33B]
0.53	4.1	COc1cc([C@@H](C)C(=O)N2CC[C@H](Nc3ccc(-c4nc(C(C)(F)F)n(C)n4)c(C)n3)C2)c(Cl)cn1 (single isomer, unassigned) [Example 37B]
0.31	3.2	COc1cc([C@@H](C)C(=O)N2CC[C@H](Nc3ccc(-c4cn(C)c(C(F)F)n4)c(C)n3)C2)c(F)cn1 (single isomer, unassigned) [Example 38B]
2	3.6	COc1cc([C@@H](C)C(=O)N2CC[C@H](Nc3ccc(-c4nc(C(F)F)n(C)n4)c(C)n3)C2)nc(C)n1 (single isomer, unassigned) [Example 41B]

More lines, now with the values behind:

SMILES	Ki [1] [nM]	Kb [2] [nM]
Cc1nc(N[C@H]2CCN(C(=O)[C@H](F)c3ccccc3)C2)ccc1-c1cn(C)cn1 (single isomer, unassigned) [Example 13B]	0.34	2.9
COc1cccc([C@@H](C)C(=O)N2CC[C@H](Nc3ccc(-c4cn(C)c(C(C)(F)F)n4)c(C)n3)C2)c1 (single isomer, unassigned) [Example 14B]	0.45	14
COc1cc([C@@H](C)C(=O)N2CC[C@H](Nc3ccc(-c4cn(C)c(C(C)(F)F)n4)c(C)n3)C2)c(C)cn1 (single isomer, unassigned) [Example 16B]	0.23	2.1
COc1ccc(C)c([C@@H](C)C(=O)N2CC[C@H](Nc3ccc(-c4cn(C)cn4)c(C)n3)C2)c1 (single isomer, unassigned) [Example 20B]	0.23	2.9
COc1cc([C@@H](C)C(=O)N2CC[C@H](Nc3ccc(-c4cn(C)c(C(C)(F)F)n4)c(C)n3)C2)c(F)cn1 (single isomer, unassigned) [Example 21B]	0.48	2.6
COc1cc([C@@H](C)C(=O)N2CC[C@H](Nc3ccc(-c4ncccn4)c(C)n3)C2)c(C)cn1 (single isomer, unassigned) [Example 22A]	120	> 110
COc1cc([C@@H](C)C(=O)N2CC[C@H](Nc3ccc(-c4ncccn4)c(C)n3)C2)c(C)cn1 (single isomer, unassigned) [Example 22B]	2.1	8.1
COc1cc([C@@H](C)C(=O)N2CC[C@H](Nc3ccc(-c4nnn(C)n4)c(C)n3)C2)c(C)cn1 (single isomer, unassigned) [Example 26A]	> 170	> 150
COc1cc(OC(F)F)cc([C@@H](C)C(=O)N2CC[C@H](Nc3ccc(-c4nc(C(C)(F)F)n(C)n4)c(C)n3)C2)c1 (single isomer, unassigned) [Example 40B]	0.29	7.2
COc1cc(OC(F)F)cc([C@@H](C)C(=O)N2CC[C@H](Nc3ccc(-c4ncccn4)c(C)n3)C2)c1 (single isomer, unassigned) [Example 44A]	> 220	> 97
COc1cc(OC(F)F)cc([C@@H](C)C(=O)N2CC[C@H](Nc3ccc(-c4ncccn4)c(C)n3)C2)c1 (single isomer, unassigned) [Example 44B]	0.77	4.1
COc1cc([C@@H](C)C(=O)N2CC[C@H](Nc3ccc(-c4nnn(C)n4)c(C)n3)C2)c(Cl)cn1 [Example 1, (2R)-2-(5-chloro-2-methoxypyridin-4-yl)-1-[(3S)-3-{[6-methyl-5-(2-methyl-2H-tetrazol-5-yl)pyridin-2-yl]amino}pyrrolidin-1-yl]propan-1-one]	0.88	5.1
COc1cc([C@@H](C)C(=O)N2CC[C@H](Nc3ccc(-c4nc(C(F)(F)F)n(C)n4)c(C)n3)C2)c(F)cn1 [Example 2, (2R)-2-(5-fluoro-2-methoxypyridin-4-yl)-1-[(3S)-3-({6-methyl-5-[1-methyl-5-(trifluoromethyl)-1H-1,2,4-triazol-3-yl]pyridin-2-yl}amino)pyrrolidin-1-yl]propan-1-one]	1.2	7.2

From patent US20250129048A1, “MELANOCORTIN 4 RECEPTOR ANTAGONISTS AND USES THEREOF” (Pfizer Inc., priority 2021, published 2025)
